Data from PMC6815954, “Rational design of caspase-responsive smart molecular probe for positron emission tomography imaging of drug-induced apoptosis” (Theranostics, 2019).
Read-outs that look alike come from different tables or passages of the source.

How the values were obtained:
[1] = test system: activated caspase-3 (19/17 kDa); assay: Western blotting of tumor and muscle lysates; type: in vivo, BALB/c nude mice; conditions: DOX intratumoral; normalized to β-actin; n = 3
Method: At the end of microPET imaging, DOX-treated or untreated mice were killed. Tumor and muscle tissues (~100 mg) were homogenized by an electronic homogenate machine in RIPA lysis buffer (1 mL) containing protease and phosphatase inhibitors (Halt Protease Inhibitor Cocktail, Thermo Fisher Scientific Inc.). Soluble lysates were harvested by centrifugation at 12,000 rpm for 10 min at 4 °C. Protein content was measured using BCA protein assay kit and 40 μg of protein was separated with a 12% SDS-PAGE gel. After blotting to PVDF membrane, the membranes were blocked with 5% skimmed milk in tris-buffered saline (TBS, pH 7.4) for 60 min at room temperature and incubated overnight at 4 °C in buffer (TBS with 0.1% Tween-20 and 5% skimmed milk) containing different antibodies. Detection of primary antibody was performed with HRP-conjugated secondary antibody. Immunoreactive bands were visualized with Western blotting luminol reagent. Densitometric analysis was performed using Image J software.

[2] = test system: intact caspase-3 (35 kDa); assay: Western blotting of DOX-treated HeLa cells, intact caspase-3; type: cell-based, human; conditions: 24 h
Method: (§1) Western blotting analysis of caspase-3 activity in DOX-treated HeLa cells HeLa cells were seeded into 6-well plates at the density of 5 ×10^5 cells/well, followed by treatment with various concentrations of DOX for 24 h. Cells were washed with ice-cold PBS and then lysed at 4 °C for 5 min with RIPA lysis buffer containing protease and phosphatase inhibitors (Halt Protease Inhibitor Cocktail, Thermo Fisher Scientific Inc.). Soluble lysates were harvested by centrifugation at 12,000 rpm for 10 min at 4 °C. The content of protein was […]
(§2) (1 picture or pasted object on this page, not shown here) […]
(§3) measured using BCA protein assay kit and 40 μg of protein was separated with a 12% […]
(§4) SDS-PAGE gel. After blotting to PVDF membrane, the membranes were blocked with 5% […]
(§5) skimmed milk in tris-buffered saline (TBS, pH 7.4) for 60 min at room temperature and […]
(§6) incubated overnight at 4 °C in buffer (TBS with 0.1% Tween-20 and 5% skimmed milk) […]
(§7) containing different antibodies. Detection of primary antibodies was performed with […]
(§8) HRP-conjugated secondary antibody. Immunoreactive bands were visualized with Western […]
(§9) blotting luminol reagent. Densitometric analysis was performed using Image J software. […]
(§10) The DOX-treated group was cultured in the presence of DOX (2 µM) […]
(§11) for 6 h at 37 °C, then the medium was changed and the cells were cultured for another 24 h at […]
(§12) 37 °C. After incubated with 1-FITC (2 µM) for 6 h at 37 °C, the cells were washed with PBS, […]
(§13) fixed with 3.7% formaldehyde in PBS and permeabilized with 0.1% Triton X-100 in PBS for […]
(§14) 30 min at room temperature. Cells were blocked with 5% BSA in PBS for 30 min, and then […]
(§15) washed with PBS. Afterwards, cells were incubated with anti-caspase-3 antibody (caspase-3 […]
(§16) rabbit monoclonal antibody, Beyotime) overnight at 4 °C, washed with PBS, and incubated […]
(§17) with Cy3-labeled goat anti-rabbit IgG (Beyotime) for 1 h. Cells were washed with PBS […]
(§18) andstained with DAPI (5 µg/mL) for 2 min, and thenwashed twice with PBS. Finally, the cells […]
(§19) were viewed with the Olympus Xcellence. […]

[3] = test system: active caspase-3 (19/17 kDa); assay: Western blotting of DOX-treated HeLa cells, active caspase-3; type: cell-based, human; conditions: 24 h
Method: as §1, §2, §3, §4, §5, §6, §7, §8, §9, §10, §11, §12, §13, §14, §15, §16, §17, §18, §19

tumor [4] = conditions: cited from earlier work
Text: Recently, a potential PET imaging agent [^18F]ICMT-11 for monitoring the tumor cell death has been approved for clinical trials, where only a modest increase of 65% uptake can be observed in the treated tumor in comparison with the vehicle control tumor [36].

tumor [5] = test system: tumor; design: method as in PMID 25972517; conditions: cited from earlier work
HeLa xenograft tumor = conditions: for tracer uptake ratio in DOX-treated versus untreated tumors: only [^18F]1
Method: BALB/c nude mice (18-20 g, 4-6 weeks old) were used for animal experiments. Mice were housed with free access to food and water, and allowed ample time to acclimatize before the experiments. The tumor models were established by subcutaneous injection of human cervical cancer cells HeLa (1~2×10^6) suspended in PBS (100 µL) in the right shoulder or the posterior limb of the nude mouse. The tumors were allowed to grow for around 3-4 weeks to reach the size of 0.5-1.0 cm in diameter. Then, a subset of mice were treated with intratumoral or intravenous injection of DOX (0.2 mg, in 20 µL). Three days later, the animals were used for PET imaging and then the tumors were removed for the analysis of caspase-3 activity. All procedures were approved by the Animal Care and Ethics Committee of Jiangsu Institute of Nuclear Medicine.
PET scanning was carried out using an Inveon Dedicated microPET scanner (Siemens). In all experiments, the mice were anesthetized with isoflurane (2% isoflurane in oxygen at a flow rate of 2 L/min). One group of HeLa-bearing mice were scanned at baseline (without DOX treatment) as a control. For the experimental groups, microPET imaging was performed for one group of mice three days after a single intratumoral injection of DOX (0.2 mg) and the other group was performed after intravenous injection of DOX (0.2 mg) every 4 days for a total of three administrations. The probe [^18F]1 (~100 μCi, in 100 μL physiological saline) was administrated by intravenous injection via the tail vein. For the co-injection group, the mice were administrated by intravenous injection of the probe [^18F]1 with the precursor 1 (20 µmol/kg) via the tail vein. PET images were acquired in a list mode date for 60 min. The PET data were binned into 12 frames and each frame was reconstructed with the OSEM3D/MAP algorithm using microPET Manager (version 6869, Siemens). The reconstructed pixel size was 0.78 × 0.78 × 0.80 mm on a 128 × 128 × 159 image matrix. All PET images were corrected for decay but not for attenuation. Each image was analyzed using ASIPro software (Siemens). […]

HeLa cells = assay: Cellular uptake assay of [^18F]1; type: cell-based, human
Method: green fluorescence) for 6 h. The active caspase-3 was stained with anti-caspase-3 primary antibody and a Cy3-labeled secondary antibody (red fluorescence). The cell nuclei were stained with DAPI (blue fluorescence). The images of 1-FITC and active caspase-3 were merged in the last column.
HeLa cells were seeded into a 6-well plate and incubated for 24 h at 37 °C. The cells were cultured in the presence of DOX (2 µM) at 37 °C for 0, 2, 4, 6, 12, and 24 h, respectively. The probe [ 18F]1 (1.0 µCi, 0.037 MBq) was added to each well and incubated for additional 4 h at 37 °C. For inhibition assay, the caspase inhibitor Z-VAD-FMK (50 µM) was added to the DOX-treated cells for 48 h before the addition of [ 18F]1. To study the influence of cold compound 1 on cellular uptake of [ 18F]1 in DOX-treated or untreated cells, HeLa cells were incubated with the cold compound 1 (10 µM) and [ 18F]1 for 4 h at 37 °C.The cells were harvested withcentrifugal separationat 4,000 rpm for 5 min after washing twice with PBS. Then Tryp-LE TM Express (1 mL) was added and the cells were kept for 1-2 min to allow detaching. The cell/Tryp-LE solution was counted by a γ counter and the activity was normalized to the protein concentration (determined by comparison with BSA standard in an absorption assay from Pierce) in each vial.
Figure S23. […]

COc1cccc2c1C(=O)c1c(O)c3c(c(O)c1C2=O)C[C@@](O)(C(=O)CO)C[C@@H]3O[C@H]1C[C@H](N)[C@H](O)[C@H](C)O1 [DOX, doxorubicin]
expression level of activated caspase-3 in DOX-treated tumor versus muscle [1]: 7.5 folds | expression level of activated caspase-3 in DOX-treated tumor versus untreated tumor [1]: 4.5 folds | decrease of intact caspase-3 expression versus DOX-untreated cells ([2]; 0.5 µM DOX): 1.3 folds | decrease of intact caspase-3 expression versus DOX-untreated cells ([2]; 1 µM DOX): 1.5 folds | decrease of intact caspase-3 expression versus DOX-untreated cells ([2]; 2 µM DOX): 2.1 folds | decrease of intact caspase-3 expression versus DOX-untreated cells ([2]; 4 µM DOX): 2.2 folds | increase of active caspase-3 expression versus DOX-untreated cells ([3]; 0.5 µM DOX): 3.3 folds | increase of active caspase-3 expression versus DOX-untreated cells ([3]; 1 µM DOX): 9.3 folds | increase of active caspase-3 expression versus DOX-untreated cells ([3]; 2 µM DOX): 13.4 folds | increase of active caspase-3 expression versus DOX-untreated cells ([3]; 4 µM DOX): 15.5 folds

O=C1C(=O)N(Cc2cn(CC[18F])nn2)c2ccc(S(=O)(=O)N3CCCC3COc3ccc(F)cc3F)cc21 (stereo not shown) [[^18F]ICMT-11]
increase of uptake in treated tumor versus vehicle control tumor (tumor [4]): 65%

OC[C@H]1OC(O)[C@H]([18F])[C@@H](O)[C@@H]1O (stereo partly shown) [^18F-FDG]
response to cell death (tumor [5]): no differentiated response

CC(CCCCC[18F])(C(=O)O)C(=O)O [^18F-ML-10]
differential response to treatment (tumor [5]): little differential response | response to cell death (tumor [5]): no differentiated response

[^18F]DEVD-Cys(StBu)-PPG(CBT)-AmBF3 [[^18F]1]
tumor-to-muscle uptake ratio in treated apoptotic tumor model relative to untreated group (HeLa xenograft tumor; 20 min post injection): more than two folds | tracer uptake ratio in DOX-treated versus untreated tumors (HeLa xenograft tumor; DOX intratumoral, 15-20 min post injection): 4.23 | tracer uptake ratio in DOX-treated versus untreated tumors (HeLa xenograft tumor; DOX intravenous): 3.01 | uptake with versus without addition of cold compound 1 (HeLa cells; DOX-untreated HeLa, cold 1 10 µM, 4 h, 37 °C): almost identical | retained [^18F] activity in DOX-treated cells with caspase inhibitor, versus untreated tumor cells (HeLa cells; HeLa, DOX 24 h, Z-VAD-FMK 50 µM for 48 h before [^18F]1): almost identical
